Measured values from patent US9463247B2, “Branched alkyl and cycloalkyl terminated biodegradable lipids for the delivery of active agents” (ALNYLAM PHARMACEUTICALS, INC., priority 2011, dated 2016).

The compounds below were run on Factor VII (FVII) (assay: In vivo determination of efficacy of lipid formulations: FVII knockdown in mice (Biophen FVII chromogenic assay)). Conditions: FVII siRNA lipid formulation containing the cationic lipid; i.v. lateral tail vein; female C57Bl/6 mice; serum 24 hours later; dose resulting in a 50% reduction in plasma FVII levels compared to control animals.
Parameters: species or system mouse (C57Bl/6)
Experimental: Test formulations were prepared using the following in-line mixing method: […]
Individual and separate stock solutions are prepared—one containing lipid and the other siRNA. Lipid stock containing lipid A, DSPC, cholesterol and PEG lipid is prepared by solubilized in 90% ethanol. The remaining 10% is low pH citrate buffer. The concentration of the lipid stock is 4 mg/mL. The pH of this citrate buffer can range between pH 3-5, depending on the type of fusogenic lipid employed. The siRNA is also solubilized in citrate buffer at a concentration of 4 mg/mL. For small scale, 5 mL of each stock solution is prepared.
Stock solutions are completely clear and lipids must be completely solubilized before combining with siRNA. Therefore stock solutions may be heated to completely solubilize the lipids. The siRNAs used in the process may be unmodified oligonucleotides or modified and may be conjugated with lipophilic moieties such as cholesterol.
The individual stocks are combined by pumping each solution to a T-junction. A dual-head Watson-Marlow pump is used to simultaneously control the start and stop of the two streams. A 1.6 mm polypropylene tubing is further downsized to a 0.8 mm tubing in order to increase the linear flow rate. The polypropylene line (ID=0.8 mm) are attached to either side of a T-junction. The polypropylene T has a linear edge of 1.6 mm for a resultant volume of […]. Each of the large ends (1.6 mm) of polypropylene line is placed into test tubes containing either solubilized lipid stock or solubilized siRNA. After the T-junction a single tubing is placed where the combined stream will emit. The tubing is then extending into a container with 2× volume of PBS. The PBS is rapidly stirring. The flow rate for the pump is at a setting of 300 rpm or 110 mL/min. Ethanol is removed and exchanged for PBS by dialysis. The lipid formulations are then concentrated using centrifugation or diafiltration to an appropriate working concentration.
Test formulations are initially assessed for their FVII knockdown in female 7-9 week old, 15-25 g, female C57Bl/6 mice at 0.1, 0.3, 1.0 and 5.0 mg/kg with 3 mice per treatment group. All studies include animals receiving either phosphate-buffered saline (PBS, Control group) or a benchmark formulation. Formulations are diluted to the appropriate concentration in PBS immediately prior to testing. Mice are weighed and the appropriate dosing volumes calculated (10 μl/g body weight). Test and benchmark formulations as well as PBS (for Control animals) are administered intravenously via the lateral tail vein. Animals are anesthetised 24 hours later with an intraperitoneal injection of Ketamine/Xylazine and 500-700 μl of blood is collected by cardiac puncture into serum separator tubes (BD Microtainer). Blood is centrifuged at 2,000×g for 10 minutes at 15° C. and serum is collected and stored at −70° C. until analysis. Serum samples are thawed at 37° C. for 30 minutes, diluted in PBS and aliquoted into 96-well assay plates. Factor VII levels are assessed using a chromogenic assay (Biophen FVII kit, Hyphen BioMed) according to manufacturer's instructions and absorbance is measured in a microplate reader equipped with a 405 nm wavelength filter. Plasma FVII levels are quantified and ED50s (dose resulting in a 50% reduction in plasma FVII levels compared to control animals) calculated using a standard curve generated from a pooled sample of serum from control animals. Those formulations of interest showing high levels of FVII knockdown (ED50<<0.1 mg/kg) are re-tested in independent studies at a lower dose range to confirm potency and establish ED50 levels.
CCCCCC(CCCC)OC(=O)CCCCCCCCC(CCCCCCCCC(=O)OC(CCCC)CCCCC)OC(=O)CCCN(C)C (centres unmarked) was tested, and the “ED50 (Mouse FVII)” value was 0.009 mg/kg.
For CCCCCC(CC)C(=O)OCCCCCCCCCC(CCCCCCCCCOC(=O)C(CC)CCCCC)OC(=O)CCCN(C)C (centres unmarked), the “ED50 (Mouse FVII)” value was 0.008 mg/kg.
With CCCCC(CC)C(=O)OCCCCCCCCCC(CCCCCCCCCOC(=O)C(CC)CCCC)OC(=O)CCCN(C)C (centres unmarked) [drawing 162] the “ED50 (Mouse FVII)” value was 0.088 mg/kg.
CN(C)CCCC(=O)OC(CCCCCC(=O)OC1CCCC1)CCCCCC(=O)OC1CCCC1 was tested, and the “ED50 (Mouse FVII)” value was greater than 0.30 mg/kg.
In the case of CN(C)CCCC(=O)OC(CCCCCCCCCOC(=O)CCC1CCCC1)CCCCCCCCCOC(=O)CCC1CCCC1, the “ED50 (Mouse FVII)” value is reported as 0.023 mg/kg.
In the case of CCCCCCOC(=O)CCCCCCCCCCCC(CCCCCCCCCCCC(=O)OCCCCCC)OC(=O)CCCN(C)C, the “ED50 (Mouse FVII)” value is reported as 0.013 mg/kg.
With CN(C)CCCC(=O)OC(CCCCCC(=O)OC1CCCCC1)CCCCCC(=O)OC1CCCC1 (centres unmarked) the “ED50 (Mouse FVII)” value was greater than 0.30 mg/kg.
For CN(C)CCCC(=O)OC(CCCCCCCCC(=O)OC1CCCCC1)CCCCCCCCC(=O)OC1CCCCC1, the “ED50 (Mouse FVII)” value was greater than 0.30 mg/kg.
With CN(C)CCCC(=O)OC(CCCCCCCCCOC(=O)C1CCCC1)CCCCCCCCCOC(=O)C1CCCC1 the “ED50 (Mouse FVII)” value was greater than 0.30 mg/kg.
In the case of CCCCC(CCCC)OC(=O)CCCCCCCCC(CCCCCCCCC(=O)OC(CCCC)CCCC)OC(=O)CCCN(C)C, the “ED50 (Mouse FVII)” value is reported as 0.010 mg/kg.
CC(C)CC(CC(C)C)OC(=O)CCCCCCCCCCCC(CCCCCCCCCCCC(=O)OC(CC(C)C)CC(C)C)OC(=O)CCCN(C)C was tested, and the “ED50 (Mouse FVII)” value was 0.020 mg/kg.
In the case of CCCCC(CCCC)OC(=O)CCCCCC(CCCCCC(=O)OC(CCCC)CCCC)OC(=O)CCCN(C)C, the “ED50 (Mouse FVII)” value is reported as greater than 0.30 mg/kg.
In the case of CN(C)CCCC(=O)OC(CCCCCCCCC(=O)OCCCC1CCCC1)CCCCCCCCC(=O)OCCCC1CCCC1, the “ED50 (Mouse FVII)” value is reported as 0.12 mg/kg.
For CCCCC(C)C(=O)OCCCCCCCCCC(CCCCCCCCCOC(=O)C(C)CCCC)OC(=O)CCCN(C)C (centres unmarked), the “ED50 (Mouse FVII)” value was greater than 0.30 mg/kg.
With CN(C)CCCC(=O)OC(CCCCCCCCC(=O)OC1CCCC1)CCCCCCCCC(=O)OC1CCCC1 the “ED50 (Mouse FVII)” value was greater than 0.30 mg/kg.
In the case of CC(OCCCCCCCCCC(CCCCCCCCCOC(=O)C1CCCCC1)OC(=O)CCCN(C)C)C1CCCCC1 (centres unmarked), the “ED50 (Mouse FVII)” value is reported as 0.032 mg/kg.
For CCCCC(CC)C(=O)OCCCCCCCCCC(CCCCCCCCCOC(=O)C(CC)CCCC)OC(=O)CCCN(C)C (centres unmarked) [drawing 149], the “ED50 (Mouse FVII)” value was 0.005 mg/kg.
